The numbers were not newly measured in patent US9035093B2 (Colgate-Palmolive Company, priority 2009, dated 2015), which cites them from elsewhere.

For this data set the following is noted: room temperature, natural partial pressure (3.5×10^−4 atmosphere).

Take `O=C=O` [Carbon dioxide]: the “maximum concentration of carbon dioxide in water” value is 12 µM.
